Patent US9546153B2, “Bicyclic heterocycle substituted pyridyl compounds useful as kinase modulators” (BRISTOL-MYERS SQUIBB COMPANY, priority 2012, dated 2017)
Where two headings read alike, the source gives them in different places.

Legend:
[1] = system: TLR2 induced IL-6 in peripheral blood mononuclear cells (PBMCs); experiment: PBMC TLR2 Induced IL-6 Assay; format: cell-based, human; conditions: human PBMCs, 10 μg/ml lipoteichoic acid for 5 hours, IL-6 by ELISA, value without asterisk, read-out: Cell IC50
Outline: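 Human PBMCs (250000 cells/well) in RPMI with 10% heat-inactivated FCS pre-treated with compound for 30 min at 37° C, then stimulated 5 h with 10 μg/ml lipoteichoic acid. Supernatant IL-6 measured by ELISA and reported as IC50 or EC50.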

IRAK4 = IRAK4 (Homo sapiens (Human), UniProt Q9NWZ3); experiment: IRAK4 Inhibition Assay; format: biochemical; conditions: ATP 500 μM; IRAK4 0.6 nM; 60 min at room temperature
Experimental: The assays were performed in U-bottom 384-well plates. […] The reaction was initiated by the combination of IRAK4 with substrates and test compounds. The reaction was incubated at room temperature for 60 min. and terminated by adding 45 μL of 35 mM EDTA to each sample. The reaction mixture was analyzed on the Caliper LABCHIP® 3000 (Caliper, Hopkinton, Mass.) by electrophoretic separation of the fluorescent substrate and phosphorylated product.

Sequence of IRAK4 (Q9NWZ3 whole entry, species assumed): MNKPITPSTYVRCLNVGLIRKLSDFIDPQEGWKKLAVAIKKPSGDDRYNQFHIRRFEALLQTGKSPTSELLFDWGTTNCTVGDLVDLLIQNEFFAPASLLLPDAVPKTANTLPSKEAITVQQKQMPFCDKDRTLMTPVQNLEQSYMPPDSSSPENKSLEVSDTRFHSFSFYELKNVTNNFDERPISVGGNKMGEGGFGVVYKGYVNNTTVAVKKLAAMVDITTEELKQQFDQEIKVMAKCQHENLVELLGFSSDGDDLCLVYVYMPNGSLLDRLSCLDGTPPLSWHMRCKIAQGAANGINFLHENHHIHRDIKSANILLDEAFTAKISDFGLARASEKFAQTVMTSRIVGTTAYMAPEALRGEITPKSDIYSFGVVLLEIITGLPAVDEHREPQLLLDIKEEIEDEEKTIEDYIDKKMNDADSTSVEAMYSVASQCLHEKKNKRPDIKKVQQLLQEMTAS

IC50 (IRAK4) [nM]	SMILES	IC50 ([1]; Homo sapiens, PBMC, 5 h) [nM]	IC50 [1] [nM]
13.4	CC(C)(C)CNc1cc(Nc2ccc3nccnc3c2)ncc1C(=O)NC[C@@H](F)C(C)(C)O [Example 103]	411	
3.6	Cc1cnc2ccc(Nc3cc(NC(C)C)c(C(=O)NC[C@@H](F)C(C)(C)O)cn3)nn12 [Example 277]	180	
4.3	CCC(C)Nc1cc(Nc2ccn3nccc3n2)ncc1C(=O)NC[C@@H](F)C(C)(C)O (stereo partly drawn) [Example 387]	293	
9.6	CC(C)(O)C(F)(F)CNC(=O)c1cnc(Nc2ccc3nccn3n2)cc1NC1CC1 [Example 283]	417	
4.2	CC(C)(O)[C@H](F)CNC(=O)c1cnc(Nc2ccn3ncc(F)c3n2)cc1NC1CCC1 [Example 252]	173	
5.9	O=C(NC[C@@H](F)CO)c1cnc(Nc2ccc3ncsc3c2)cc1NC1CCCC1 [Example 150]	395	
2.9	CC(C)(O)[C@H](F)CNC(=O)c1cnc(Nc2ccc3nsnc3c2)cc1N[C@@H](c1ccccc1)[C@H](O)CO [Example 102]	312	
10.6	CC(C)(O)[C@H](F)CNC(=O)c1cnc(Nc2ncc3ncccc3n2)cc1N[C@@H]1CCC[C@@H]1F [Example 446]	94	
6.5	CNC(=O)[C@H]1CC[C@H](NC(=O)c2cnc(Nc3ccc4ncsc4c3)cc2NCC(F)(F)F)CC1 [Example 506]	320	
4.7	CC(C)Nc1cc(Nc2ccc3ncsc3c2)ncc1C(=O)NC[C@@H](F)C(C)(O)C(F)(F)F (stereo partly drawn) [Example 17]	221	
8.8	CC(C)(O)[C@H](F)CNC(=O)c1cnc(Nc2ccn3nccc3n2)cc1NC1COCCC1F (stereo partly drawn) [Example 256]	587	
16.2	CC(C)Nc1cc(Nc2ccc3ncsc3c2)ncc1C(=O)NCC[C@H](C)NC(=O)CC(C)(C)O [Example 179]	532	
4.6	CC(C)(O)[C@H](F)CNC(=O)c1cnc(Nc2ccc3nccnc3c2)cc1NC1CCCC1(F)F (stereo partly drawn) [Example 359]	188	
2.4	CC(C)(O)[C@H](F)CNC(=O)c1cnc(Nc2ccn3nccc3n2)cc1NC1CCC(F)C1 (stereo partly drawn) [Example 255]		86
4.4	Cc1nn2ccc(Nc3cc(NCC(C)(C)F)c(C(=O)NC[C@@H](F)C(C)(C)O)cn3)cc2c1F [Example 300]	294	
7	CC(C)Nc1cc(Nc2ccc3ncsc3c2)ncc1C(=O)NC1CCN(C(=O)N2CCOCC2)CC1 [Example 218]	471	
3	CC(C)(O)[C@H](F)CNC(=O)c1cnc(Nc2ccc3nonc3c2)cc1N[C@@H]1CCCC1F (stereo partly drawn) [Example 356]	281	
3.9	CC(C)(O)[C@H](F)CNC(=O)c1cnc(Nc2ccc3ncsc3c2)cc1NCC(F)(F)C(C)(C)O [Example 107]	174	
2.5	CC(C)(O)[C@H](F)CNC(=O)c1cnc(Nc2ccn3nccc3n2)cc1NC1CC2CC2C1(F)F (stereo partly drawn) [Example 452]	239	
3	CC(C)(O)[C@H](F)CNC(=O)c1cnc(Nc2nc3ccnn3cc2F)cc1NC1CCC(F)C1 (stereo partly drawn) [Example 409]		207
3.3	CCNC(=O)[C@H]1CC[C@H](NC(=O)c2cnc(Nc3ccc4ncsc4c3)cc2NC(C)C)CC1 [Example 225]	535	
4.8	CC(C)Nc1cc(Nc2ccn3ncc(Cl)c3c2)ncc1C(=O)NC[C@@H](F)C(C)(C)O [Example 295]	446	
6.7	CC(C)Nc1cc(Nc2ccc3ncsc3c2)ncc1C(=O)N[C@H]1CC[C@H](C(=O)NC23CC4CC(CC(O)(C4)C2)C3)CC1 [Example 214]	371	

IC50 (IRAK4) [nM]	SMILES	IC50 ([1]; Homo sapiens, PBMC, 5 h) [nM]	IC50 [1] [nM]
7.4	Cc1cc2nc(Nc3cc(NC4CCC(F)C4)c(C(=O)NC[C@@H](F)C(C)(C)O)cn3)ccn2n1 (stereo partly drawn) [Example 267]	468	
6	CC(C)(O)[C@H](F)CNC(=O)c1cnc(Nc2cc3scnc3cc2F)cc1NC1CCCOC1 (stereo partly drawn) [Example 517]	1290	
9	CC(C)(O)[C@H](F)CNC(=O)c1cnc(Nc2ccc3ncsc3c2)cc1NCCc1ccccc1 [Example 165]	386	
7.8	CC(O)[C@H](F)CNC(=O)c1cnc(Nc2ccc3ncsc3c2)cc1NC1CCCC1 (stereo partly drawn) [Example 28]	195	
2.7	CC(C)(O)[C@H](F)CNC(=O)c1cnc(Nc2ccc3nccn3n2)cc1NC1CCC(F)C1 (stereo partly drawn) [Example 280]		127
5.2	CC(C)Nc1cc(Nc2ccn3nccc3c2)ncc1C(=O)NC[C@@H](F)C(C)(C)O [Example 286]	415	
4.7	CC(C)(O)[C@H](F)CNC(=O)c1cnc(Nc2ccc3ncsc3c2)cc1N[C@H]1CCC(CCO)C1 (stereo partly drawn) [Example 68]		231
21.7	CC(C)(O)[C@H](F)CNC(=O)c1cnc(Nc2ccc3nonc3c2)cc1NCC(F)(F)F [Example 100]	830	
2.6	CC(C)(O)c1cnc(Nc2cc(Nc3nc4ccnn4cc3F)ncc2C(=O)NC[C@@H](F)C(C)(C)O)s1 [Example 453]	836	
3	CNC(=O)c1ccc(Nc2cc(Nc3ccc4ncsc4c3)ncc2C(=O)NC[C@@H](F)C(C)(C)O)cc1 [Example 319, (R)-6-(benzo[d]thiazol-6-ylamino)-N-(2-fluoro-3-hydroxy-3-methylbutyl)-4-(4-(methylcarbamoyl)phenylamino)nicotinamide]	315	
13.4	COc1ccc(CNc2cc(Nc3ccc4ncsc4c3)ncc2C(=O)NC[C@@H](F)C(C)(C)O)cc1 [Example 168]	565	
11.4	O=C(NC1CCC(O)CC1)c1cnc(Nc2ccc3nccn3n2)cc1NC1CCC1 (stereo not drawn) [Example 282]	458	
4.6	CC(C)(F)CNc1cc(Nc2ccn3ncc(Cl)c3n2)ncc1C(=O)NC[C@@H](F)C(C)(C)O [Example 264]	384	
5.9	CC(C)(O)C(F)(F)CNC(=O)c1cnc(Nc2ccc3ncsc3c2)cc1NC1CC1 [Example 170]	477	
3.5	CC(C)Nc1cc(Nc2ccc3ncsc3c2)ncc1C(=O)N[C@H]1CC[C@H](C(=O)NCC(C)(C)O)CC1 [Example 196]	325	
13.4	CCNc1cc(Nc2ccc3ncnc(OC)c3c2)ncc1C(=O)NC[C@@H](F)C(C)(C)O [Example 125]	779	
4.7	CC(C)(F)CNc1cc(Nc2cc3scnc3cn2)ncc1C(=O)NC[C@@H](F)C(C)(C)O [Example 316]	429	
8	CC(C)(O)[C@H](F)CNC(=O)c1cnc(Nc2nc3ccnn3cc2F)cc1NC1CCC(F)(F)C1 (stereo partly drawn) [Example 392]		297
5.4	CC(C)(O)[C@H](F)CNC(=O)c1cnc(Nc2ccc3ncsc3c2)cc1NC1CCCOC1 (stereo partly drawn) [Example 53]	230	
5.6	CCC(C)Nc1cc(Nc2ccn3nccc3c2)ncc1C(=O)NC[C@@H](F)C(C)(C)O (stereo partly drawn) [Example 302]	426	
2.7	CC(C)(O)[C@H](F)CNC(=O)c1cnc(Nc2ccn3nccc3n2)cc1NC1CCC(F)C1 (stereo partly drawn) [Example 247]		170
7	CC(C)(O)[C@H](F)CNC(=O)c1cnc(Nc2ccc3ncccc3c2)cc1NC1CC1 [Example 58]	545	
